In patent publication US20050170485A1, “Culture having phenol oxidase-like activity” (priority 2002, published 2005):

Experiments:
Type in all cases: biochemical
[1] = system: laccase from Japanese lacquer; assay: Direct oxidation reaction by laccase (comparison); conditions: reaction pH 7.0; 2-chloro 1,4-phenylenediamine = 100
Procedure: (§1) Next, 20 μl of the above-mentioned culture solution was added to the resulting mixture. A change in absorbance at 490 nm, 450 nm or 405 nm was determined for the resulting product, depending on the substrate. Here, 1 U (unit) of the activity regarding the direct oxidative reaction was defined as an amount for increasing the absorbance by 1 per one minute.
(§2) In addition, for the comparison, the substrate specificities at pH 7.0 for laccase from Japanese lacquer and bilirubin oxidase from the strain belonging to the genus Myrothecium were also examined in the same manner.

[2] = target: T1, bilirubin oxidase from the strain belonging to the genus Myrothecium (Albifimbria verrucaria, UniProt Q12737); assay: Direct oxidation reaction by bilirubin oxidase (comparison); set-up: concentration or dose not given beside the values; conditions: reaction pH 7.0; 2-chloro 1,4-phenylenediamine = 100
T1 sequence (Q12737 39-572): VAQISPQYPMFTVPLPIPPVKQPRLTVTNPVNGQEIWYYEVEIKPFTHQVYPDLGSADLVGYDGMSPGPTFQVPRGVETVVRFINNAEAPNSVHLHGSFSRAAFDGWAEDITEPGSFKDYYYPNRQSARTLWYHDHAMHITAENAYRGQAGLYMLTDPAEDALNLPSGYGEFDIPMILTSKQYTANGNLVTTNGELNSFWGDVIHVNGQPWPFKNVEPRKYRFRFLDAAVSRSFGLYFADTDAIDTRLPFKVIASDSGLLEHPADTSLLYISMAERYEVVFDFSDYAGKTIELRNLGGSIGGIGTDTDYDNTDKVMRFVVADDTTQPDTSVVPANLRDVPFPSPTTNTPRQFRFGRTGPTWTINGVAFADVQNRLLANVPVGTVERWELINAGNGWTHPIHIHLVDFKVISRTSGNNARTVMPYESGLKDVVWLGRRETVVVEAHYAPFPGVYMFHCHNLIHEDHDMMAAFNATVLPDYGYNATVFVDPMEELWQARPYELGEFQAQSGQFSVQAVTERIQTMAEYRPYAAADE
Procedure: as §1, with “Concretely, 180 μl of 0.89 mM sodium phosphate buffer (pH 7.0) containing […] substrate was pre-incubated in wells of a 96-well microplate [manufactured by Corning, Costor (registered trademark) 3368] at 25° C. for 1 minute. Next,” for “Next,”
as §2
The relative activity (%) for each substrate is shown in Table 7, in which the measured value for a case where a representative chemical dye 2-chloro 1,4-phenylenediamine was used as a substrate is 100.

[3] = system: culture of Flammulina velutipes strain IFO 30601; assay: Direct oxidation reaction by the culture; conditions: for activity of the culture for the substrate in words, direct oxidation reaction: pH 7.0; for activity of the culture compared with bilirubin oxidase from the genus Myrothecium, direct oxidation / activity of the culture compared with laccase from Japanese lacquer, direct oxidation: pH 7.0, relative activities of Table 7; for Relative Activity, Culture (direct oxidation): reaction pH 7.0, 2-chloro 1,4-phenylenediamine = 100
Procedure: Further, the direct oxidation reaction of the culture obtained in the above-mentioned example was determined by using color development due to oxidative polymerization of a substrate generated by the direct action of the culture of the present invention on the substrate as an index.
As the substrates, there were used diaminophenolic compounds (2-chloro 1,4-phenylenediamine, p-phenylenediamine, 2,5-diaminotoluene, N-phenyl-p-phenylenediamine, toluylene-3,4-diamine, m-phenylenediamine), aminophenolic compounds (o-aminophenol, m-aminophenol, 5-amino-o-cresol, p-aminophenol, p-methylaminophenol), and phenolic compounds (2,6-dimethoxyphenol, catechol, resorcinol, hydroquinone, pyrogallol, gallic acid, propyl gallate, 1-naphthol, […], 2,3,4-trihydroxybenzophenone, 2,3,4,4-tetrahydroxybenzophenone). As to a substrate hardly soluble in water, there was used one obtained by dissolving the substrate in a small amount of dimethyl sulfoxide and diluting the resulting solution with deionized distilled water to a desired concentration. In Table 6, %” indicates volume/volume %.
as §1, with “Concretely, 180 μl of 0.89 mM sodium phosphate buffer (pH 7.0) containing […] substrate was pre-incubated in wells of a 96-well microplate [manufactured by Corning, Costor (registered trademark) 3368] at 25° C. for 1 minute. Next,” for “Next,”

[4] = system: culture of Flammulina velutipes strain IFO 30601; assay: Oxidative coupling reaction with 4-aminoantipyrine by the culture; conditions: for activity of the culture for the substrate in words, oxidative coupling reaction: pH 7.0; for Specific Activity, Culture (oxidative coupling with 4-aminoantipyrine): reaction pH 7.0, 25° C., substrate 2.0 mM
Procedure: Next, the oxidative coupling reaction of the culture obtained in (2) in Example 1 mentioned above was determined by using color development as an index by the oxidative condensation of the substrate (hydrogen donor) with 4-aminoantipyrine, catalyzed by the culture of the present invention.
As the hydrogen donors, there were used phenolic compounds (phenol, 2-methoxyphenol, 2,6-dimethoxyphenol, catechol, resorcinol, hydroquinone, pyrogallol, gallic acid, propyl gallate, 1-naphthol, catechin), aminophenolic compounds (o-aminophenol, m-aminophenol, p-aminophenol), diaminophenolic compounds (o-phenylenediamine, m-phenylenediamine, p-phenylenediamine), and heterocyclic compounds (5-hydroxyindole, 2,6-diaminopyridine).
The above-mentioned culture solution was added to a reaction system containing 4-aminoantipyrine and an optional hydrogen donor. Thereafter, the activity of the culture of the present invention was assayed by determining a change in absorbance at 490 nm for the phenolic compound, the diaminophenolic compound and the heterocyclic compound, or determining a change in absorbance at 450 nm for the aminophenolic compound. As to a substrate hardly soluble in water, there was used one obtained by dissolving the substrate in a small amount of dimethyl sulfoxide and diluting the resulting solution with deionized water to a desired concentration. In Table 4, DMSO is an abbreviation for dimethyl sulfoxide.
(§3) Concretely, 190 μl of 105.3 mM phosphate buffer (pH 7.0) containing 0.4 μmol of a substrate and 4.0 μmol of 4-aminoantipyrine was pre-incubated in wells of a 96-well microplate [manufactured by Corning, Costor (registered trademark) 3368] at 25° C. for 1 minute. Next, 10 μl of the above-mentioned culture solution was added to the resulting mixture, and thereafter, the mixture was incubated for 1 hour. A change in absorbance at 490 nm or 450 nm was determined for the resulting product. One unit (U) of the activity regarding the oxidative coupling reaction was defined as an amount for increasing the absorbance by 1 per one minute.

[5] = target: T2, bilirubin oxidase from the strain of the genus Myrothecium (Albifimbria verrucaria, UniProt Q12737); assay: Oxidative coupling reaction with 4-aminoantipyrine by bilirubin oxidase (comparison); conditions: reaction pH 8.0, substrate 2.0 mM
T2 sequence (Q12737 39-572): T1 sequence (Q12737 39-572)
Procedure: as §3
In addition, for the comparison, the examination was made in the same manner for bilirubin oxidase from the strain of the genus Myrothecium except that the above-mentioned buffer was replaced with 105.3 mM Tris-HCl buffer (pH 8.0).

Row | Compound | Relative Activity, Laccase from Japanese Lacquer (direct oxidation) [1] [%] | Relative Activity, Bilirubin Oxidase from Strain Belonging to Genus Myrothecium (direct oxidation) [2] [%] | activity of the culture for the substrate in words, direct oxidation reaction [3] | activity of the culture compared with bilirubin oxidase from the genus Myrothecium, direct oxidation [3] | activity of the culture compared with laccase from Japanese lacquer, direct oxidation [3] | Relative Activity, Culture (direct oxidation) [3] [%] | activity of the culture for the substrate in words, oxidative coupling reaction [4] | Specific Activity, Culture (oxidative coupling with 4-aminoantipyrine) [4] [U/mg Protein] | Specific Activity, Bilirubin Oxidase from Strain Belonging to Genus Myrothecium (oxidative coupling with 4-aminoantipyrine) [5] [U/mg Protein] | activity of the culture for the substrate in words, direct oxidation reaction ([3]; listed as 2,3,4,4-tetrahydrobenzophenone)
1 | O=C(c1ccccc1)c1ccc(O)c(O)c1O [2,3,4-Trihydroxybenzophenone] | 175 | 62 | especially high activity | even higher activity | higher activity | 537 |  |  |  | 
2 | Nc1cccc(N)n1 [2,6-Diaminopyridine] |  |  |  |  |  |  | high activity | 37.7 | 2.3 | 
3 | Oc1ccc(O)cc1 [Hydroquinone] | 2 | 4 |  | even higher activity | even higher activity | 20 |  | 2.1 | 0.5 | 
4 | C1=CCC2=CC=CCC2=C1 [1,5-Dihydronaphthalene] | 47 | 69 |  |  |  | 63 |  |  |  | 
5 | Catechin |  |  |  |  |  |  | especially high activity | 14.0 | 4.6 | 
6 | Oc1ccc2[nH]ccc2c1 [5-Hydroxyindole] |  |  |  |  |  |  |  | 4.7 | 1.9 | 
7 | Cc1ccc(N)cc1O [5-Amino-o-cresol] | 1 | 19 |  | even higher activity | even higher activity | 117 |  |  |  | 
8 | Oc1cccc(O)c1O [Pyrogallol] | 187 | 104 | high activity |  |  | 184 |  | 3.2 | −27.6 | 
9 | Nc1ccc(Nc2ccccc2)cc1 [N-Phenyl-p-phenylenediamine] | 94 | 102 | especially high activity |  |  | 174 |  |  |  | 
10 | Oc1ccccc1 [Phenol] |  |  |  |  |  |  |  | 8.1 | 0.9 | 
11 | O=C(c1ccc(O)cc1)c1ccc(O)c(O)c1O [2,3,4,4-Tetrahydroxybenzophenone] | 179 | 52 | high activity | even higher activity | higher activity | 571 |  |  |  | especially high activity
12 | CNc1ccc(O)cc1 [p-Methylaminophenol] | 308 | 122 | especially high activity | higher activity |  | 304 |  |  |  | 
13 | Oc1cccc2ccccc12 [1-Naphthol] | 17 | 50 |  | even higher activity |  | 17 | especially high activity | 18.1 | 33.0 | 
14 | Nc1ccccc1N [o-Phenylenediamine] |  |  |  |  |  |  |  | 15.1 | 4.5 | 
15 | Cc1ccc(N)c(N)c1 [Toluylene-3,4-diamine] | 61 | 45 |  | higher activity |  | 120 |  |  |  | 
16 | Cc1cc(N)ccc1N [2,5-Diaminotoluene] | 44 | 24 |  | higher activity |  | 80 |  |  |  | 
17 | Nc1ccc(N)c(Cl)c1 [2-Chloro 1,4-phenylenediamine] | 100 | 100 |  |  |  | 100 |  |  |  | 
